How the values were obtained:
[1] = Visual assessment score (clarity of gel in 1 cm cuvette); assay type: physicochemical; details: gel in 60:40 w/w Silkflo 364:DC245; score scale −12 to 8
Excerpt: A gel contained within a 1 cm thick cuvette was placed directly on to a sheet of white paper on which 21 sets of figures where printed in black. The size and thickness of the figures varied systematically and were numbered from −12 (the largest, thickest set) through 0 to 8 (the smallest thinnest set) The score given to each gel was the highest numbered set which could be read clearly through the gel, the higher the number, the higher the clarity.

[2] = Gelling of water-immiscible cosmetic liquids in 96 well glass micro-titre plate; assay type: physicochemical; parameters: key: gel; g4: gel after overnight (18 hrs) storage at 4° C.; g22: gel after overnight (18 hrs) storage at 22° C.; sg: soft gel; sg22: soft gel after overnight (18 hrs) storage at 22° C.; solution; *: the test at 4° C. was not carried out; details: for gelling of ISA: 150° C. 2.5 hours, cooled to ambient
Description: In this Example, various samples of esterified cellobiose prepared as in Example 1 or 2 above, were used to gel water-immiscible cosmetic liquids, in accordance with the procedure given below, in which a large number of gels can be prepared simultaneously.
The samples were tested in a 96 well (8×12 rows) glass micro-titre plate. […] About 0.01 or 0.02 g of each esterified cellobiose material was placed into 8 consecutive wells in a single row, so that each well contained approximately 5% or 10% of the cellobiose ester. The balance in each well comprised the cosmetic liquid by addition of approximately 0.2 g of the respective liquid to each cell. A glass lid was placed on top of the plate. The plate was carefully placed in a thermostatically controlled fan-assisted oven set at 150° C. for 2.5 hours. The plate was removed from the oven and allowed to cool naturally to ambient laboratory temperature. The contents of the wells were assessed at the end of the cooling period, by visual inspection and by poking the contents of each well with a micro-spatula. The plates were stored at […] for 18 hours and the contents inspected, and further stored for 18 hours at 4° C. and inspected for a third time. The results obtained in the tests are summarised in Table 5 below, in which the legend is as follows: […]

[3] = 5% cellobiose ester in Fluid AP
[4] = 5% cellobiose ester in Mineral oil
[5] = 5% cellobiose ester in Polydecene
[6] = 10% cellobiose ester in Fluid AP
[7] = 10% cellobiose ester in Mineral oil
[8] = 10% cellobiose ester in Polydecene

Molecule | Visual [1] | gelling of DC556 ([2]; 5% cellobiose ester in DC556) | gelling of Fluid AP [2, 3] | gelling of ISA ([2]; 5% cellobiose ester in ISA) | gelling of Mineral oil [2, 4] | gelling of Polydecene [2, 5] | gelling of DC556 ([2]; 10% cellobiose ester in DC556) | gelling of Fluid AP [2, 6] | gelling of ISA ([2]; 10% cellobiose ester in ISA) | gelling of Mineral oil [2, 7] | gelling of Polydecene [2, 8] | gelling of IPM ([2]; 5% cellobiose ester in IPM) | gelling of IPM ([2]; 10% cellobiose ester in IPM)
cellobiose heptanonanoate monocyclohexanoate [Ex 1.12] | 3 | – | – | – | – | – | – | – | – | – | – | – | –
CCCCCCCCC(=O)OCC1OC(OC2C(COC(=O)CCCCCCCC)OC(OC(=O)CCCCCC)C(OC(=O)CCCCCCCC)C2OC(=O)CCCCCCCC)C(OC(=O)CCCCCCCC)C(OC(=O)CCCCCCCC)C1OC(=O)CCCCCCCC (mixture of isomers) [Ex 1.22] | – | g22 | gel | sg22 | sol | gel | g22 | gel | g22 | g22 | gel | – | –
CCCCCCCCCC(=O)OCC1OC(OC2C(COC(=O)CCCCCCCCC)OC(OC(=O)c3ccccc3)C(OC(=O)CCCCCCCCC)C2OC(=O)CCCCCCCCC)C(OC(=O)CCCCCCCCC)C(OC(=O)CCCCCCCCC)C1OC(=O)CCCCCCCCC (mixture of isomers) [Ex 2.2] | – | gel | gel | gel | gel | gel | gel | gel | gel | gel | gel | – | –
CCCCCCCCCCCCCC(=O)OC1OC(COC(=O)CCCCCCCC)C(OC2OC(COC(=O)CCCCCCCC)C(OC(=O)CCCCCCCC)C(OC(=O)CCCCCCCC)C2OC(=O)CCCCCCCC)C(OC(=O)CCCCCCCC)C1OC(=O)CCCCCCCC (mixture of isomers) [Ex 1.24] | – | gel | gel | g22 | g22 | gel | gel | gel | gel | g22 | gel | – | –
CCCCCCCCC(=O)OCC1OC(OC2C(COC(=O)CCCCCCCC)OC(OC(=O)CC)C(OC(=O)CCCCCCCC)C2OC(=O)CCCCCCCC)C(OC(=O)CCCCCCCC)C(OC(=O)CCCCCCCC)C1OC(=O)CCCCCCCC (mixture of isomers) [Ex 1.16] | – | gel | gel | gel | gel | gel | gel | gel | gel | gel | gel | – | –
CCCCCCCCC(=O)OCC1OC(OC2C(COC(=O)CCCCCCCC)OC(OC(=O)CCC)C(OC(=O)CCCCCCCC)C2OC(=O)CCCCCCCC)C(OC(=O)CCCCCCCC)C(OC(=O)CCCCCCCC)C1OC(=O)CCCCCCCC (mixture of isomers) [Ex 1.18] | – | gel | gel | sg22 | g22 | gel | gel | gel | gel | gel | gel | – | –
cellobiose heptanonanoate monocyclohexanoate [Ex 1.13] | 6 | – | – | – | – | – | – | – | – | – | – | – | –
cellobiose heptanonanoate monocyclohexanoate [Ex 1.14] | 3 | gel | gel | g22 | gel | gel | gel | gel | gel | gel | gel | sol | g4
cellobiose heptanonanoate monocyclohexanoate [Ex 3.1] | 3 | – | – | – | – | – | – | – | – | – | – | – | –
cellobiose heptanonanoate monocyclohexanoate [Ex 3.2] | 5 | – | – | – | – | – | – | – | – | – | – | – | –

— patent US6974804B2, “Esters” (Unilever Home & Personal Care USA, division of Conopco, Inc., priority 2000, dated 2005)
